Test results published in PubChem BioAssay AID1963972 (Molecular Pharmacology Branch, DTP, NCI, 2024).

Test system: 945468-187-T-J2-PDC spheroids viability
Test: Anticancer human tumor 945468-187-T-J2-PDC patient-derived rectal carcinoma cell line growth inhibition [PI3K]
Conditions: spheroids with HUVEC and MSC; for IC50: curve of first compound; for viability, T/C: stronger effect = lower value
Outline: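 Multi-cell spheroids combine tumor cells with HUVEC and human MSCs, treated with targeted agents alone or with inavolisib, alpelisib, duvelisib or copanlisib. Concentrations fall in half-log steps from at or near clinical Cmax, or from 10 microM where Cmax is unknown; viability read-out.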

[1] = second compound 0.0316 µM, first compound 0.0316 µM
[2] = second compound 0.0316 µM, first compound 0.1 µM
[3] = second compound 0.1 µM, first compound 0.0316 µM
[4] = second compound 0.1 µM, first compound 0.1 µM
[5] = second compound 0.316 µM, first compound 0.0316 µM
[6] = second compound 0.316 µM, first compound 0.1 µM
[7] = second compound 1 µM, first compound 0.0316 µM
[8] = second compound 1 µM, first compound 0.1 µM
[9] = second compound 3.16 µM, first compound 0.0316 µM
[10] = second compound 3.16 µM, first compound 0.1 µM
[11] = second compound 10 µM, first compound 0.0316 µM
[12] = second compound 10 µM, first compound 0.1 µM
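Note: spheroids exposed to compounds for seven days before reading.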

`CC(C)NCC(C(=O)N1CCN(c2ncnc3c2C(C)CC3O)CC1)c1ccc(Cl)cc1` (centres undefined) + Cc1nc(NC(=O)N2CCCC2C(N)=O)sc1-c1ccnc(C(C)(C)C(F)(F)F)c1 was tested, and the IC50 (second compound 0.0316 µM) was over 10 µM, the IC50 (second compound 0.1 µM) was over 10 µM and the IC50 (second compound 0.316 µM) was over 10 µM. The IC50 (second compound 1 µM) was over 10 µM, the IC50 (second compound 3.16 µM) was over 10 µM and the IC50 (second compound 10 µM) was over 10 µM. It also gave a viability, T/C [1] of 110%, a viability, T/C [2] of 138% and a viability, T/C (second compound 0.0316 µM, first compound 0.316 µM) of 140%. The viability, T/C (second compound 0.0316 µM, first compound 1 µM) was 110%, the viability, T/C (second compound 0.0316 µM, first compound 3.16 µM) was 108% and the viability, T/C (second compound 0.0316 µM, first compound 10 µM) was 96.8%. For the same molecule, the viability, T/C [3] was 111%, the viability, T/C [4] was 109% and the viability, T/C (second compound 0.1 µM, first compound 0.316 µM) was 125%. For the same molecule, the viability, T/C (second compound 0.1 µM, first compound 1 µM) was 103%, the viability, T/C (second compound 0.1 µM, first compound 3.16 µM) was 106% and the viability, T/C (second compound 0.1 µM, first compound 10 µM) was 115%. The viability, T/C [5] was 99%, the viability, T/C [6] was 117% and the viability, T/C (second compound 0.316 µM, first compound 0.316 µM) was 99.7%. The viability, T/C (second compound 0.316 µM, first compound 1 µM) was 87.8%, the viability, T/C (second compound 0.316 µM, first compound 3.16 µM) was 119% and the viability, T/C (second compound 0.316 µM, first compound 10 µM) was 98.4%. It also gave a viability, T/C [7] of 106%, a viability, T/C [8] of 119% and a viability, T/C (second compound 1 µM, first compound 0.316 µM) of 109%. For the same molecule, the viability, T/C (second compound 1 µM, first compound 1 µM) was 88.6%, the viability, T/C (second compound 1 µM, first compound 3.16 µM) was 121% and the viability, T/C (second compound 1 µM, first compound 10 µM) was 98.6%. The viability, T/C [9] was 79.6%, the viability, T/C [10] was 90.4% and the viability, T/C (second compound 3.16 µM, first compound 0.316 µM) was 103%. The viability, T/C (second compound 3.16 µM, first compound 1 µM) was 95.8%, the viability, T/C (second compound 3.16 µM, first compound 3.16 µM) was 81.5% and the viability, T/C (second compound 3.16 µM, first compound 10 µM) was 98.2%. It also gave a viability, T/C [11] of 95.8%, a viability, T/C [12] of 76.9% and a viability, T/C (second compound 10 µM, first compound 0.316 µM) of 73.6%. The viability, T/C (second compound 10 µM, first compound 1 µM) was 88.5%, the viability, T/C (second compound 10 µM, first compound 3.16 µM) was 93.8% and the viability, T/C (second compound 10 µM, first compound 10 µM) was 82.5%.

Molecule `Cn1ncnc1[C@H]1c2n[nH]c(=O)c3cc(F)cc(c23)N[C@@H]1c1ccc(F)cc1` + Cc1nc(NC(=O)N2CCCC2C(N)=O)sc1-c1ccnc(C(C)(C)C(F)(F)F)c1 has an IC50 (second compound 0.0316 µM) of over 0.1 µM, an IC50 (second compound 0.1 µM) of over 0.1 µM and an IC50 (second compound 0.316 µM) of over 0.1 µM. For the same molecule, the IC50 (second compound 1 µM) was over 0.1 µM, the IC50 (second compound 3.16 µM) was over 0.1 µM and the IC50 (second compound 10 µM) was over 0.1 µM. The viability, T/C (second compound 0.0316 µM, first compound 0.000316 µM) was 103%, the viability, T/C (second compound 0.0316 µM, first compound 0.001 µM) was 83.4% and the viability, T/C (second compound 0.0316 µM, first compound 0.00316 µM) was 130%. The viability, T/C (second compound 0.0316 µM, first compound 0.01 µM) was 100%, the viability, T/C [1] was 91.6% and the viability, T/C [2] was 130%. It also gave a viability, T/C (second compound 0.1 µM, first compound 0.000316 µM) of 106%, a viability, T/C (second compound 0.1 µM, first compound 0.001 µM) of 109% and a viability, T/C (second compound 0.1 µM, first compound 0.00316 µM) of 129%. The viability, T/C (second compound 0.1 µM, first compound 0.01 µM) was 91.2%, the viability, T/C [3] was 117% and the viability, T/C [4] was 131%. It also gave a viability, T/C (second compound 0.316 µM, first compound 0.000316 µM) of 110%, a viability, T/C (second compound 0.316 µM, first compound 0.001 µM) of 119% and a viability, T/C (second compound 0.316 µM, first compound 0.00316 µM) of 89.4%. The viability, T/C (second compound 0.316 µM, first compound 0.01 µM) was 82.2%, the viability, T/C [5] was 117% and the viability, T/C [6] was 117%. The viability, T/C (second compound 1 µM, first compound 0.000316 µM) was 108%, the viability, T/C (second compound 1 µM, first compound 0.001 µM) was 104% and the viability, T/C (second compound 1 µM, first compound 0.00316 µM) was 103%. For the same molecule, the viability, T/C (second compound 1 µM, first compound 0.01 µM) was 119%, the viability, T/C [7] was 134% and the viability, T/C [8] was 89.3%. It also gave a viability, T/C (second compound 3.16 µM, first compound 0.000316 µM) of 94%, a viability, T/C (second compound 3.16 µM, first compound 0.001 µM) of 97.1% and a viability, T/C (second compound 3.16 µM, first compound 0.00316 µM) of 86.5%. For the same molecule, the viability, T/C (second compound 3.16 µM, first compound 0.01 µM) was 90.2%, the viability, T/C [9] was 90.4% and the viability, T/C [10] was 92%. It also gave a viability, T/C (second compound 10 µM, first compound 0.000316 µM) of 99.3%, a viability, T/C (second compound 10 µM, first compound 0.001 µM) of 85.5% and a viability, T/C (second compound 10 µM, first compound 0.00316 µM) of 88.6%. The viability, T/C (second compound 10 µM, first compound 0.01 µM) was 77.8%, the viability, T/C [11] was 91.5% and the viability, T/C [12] was 89.8%.
